Measurements as given in PMC9648375, “Identification of the first-in-class dual inhibitors of human DNA topoisomerase IIα and indoleamine-2,3-dioxygenase 1 (IDO 1) with strong anticancer properties” (Journal of Enzyme Inhibition and Medicinal Chemistry, 2022).
≈ marks a conversion by molar mass, not a printed value. Like-named read-outs stand apart in the source and are kept apart here.

Experiments:
[1] = system: SCC-25 (squamous cell carcinoma of the tongue); test: MTT assay; format: cell-based; settings: Homo sapiens, SCC-25, MTT, read-out: IC50, cytotoxicity
Protocol: (§1) Therefore, the whole set of compounds were tested by using MTT assay in order to check their overall cytotoxic effect. The growth of cells was monitored after 24 and 48 h of incubation with the increased concentrations (1–100 µg/ml) of the thiosemicarbazide derivatives. […] This confirms that the compounds tested combine different mechanisms of anticancer activity, and DNA topoisomerase II inhibition is only one of them.
(§2) Cytotoxicity of the synthesised compounds were examined against a panel of the cancer cell lines, MCF-7 (estrogen-dependent human breast cancer cells), MDA-MB-231 (oestrogen-independent human breast cancer cells), SCC- 25 (squamous cell carcinoma of the tongue), FaDu (squamous cell carcinoma of the pharynx), A- 549 (human lung carcinoma), AGS (human gastric adenocarcinoma), LS-180, HT-29 (colon cancer cell lines), T98G (glioblastoma cells), A375 (melanoma cells). Human embryonic kidney (HEK-293) cells and human normal skin fibroblasts (CRL-2072) were used as reference cell lines. The investigated cell lines were obtained from American Type Culture Collection (ATCC; Manassas, VA, USA). A375, MCF-7, MDA-MB-231, T98G cells were cultured in Dulbecco’s Modified Eagle’s Medium (DMEM) (Sigma Aldrich, St. Louis, MO, USA) supplemented with 10% heat inactivated foetal bovine serum (FBS), penicillin (100 U/mL), and streptomycin (100 μg/mL). SCC-25 cells were cultured in 1:1 mixture of Dulbecco’s modified Eagle’s medium and Ham’s F12 Medium (Sigma Aldrich, St. Louis, MO, USA) supplemented with 400 ng/ml hydrocortisone, 10% FBS, penicillin (100 U/mL), and streptomycin (100 μg/mL). A549 and AGS cells were maintained in F-12K Medium (Sigma Aldrich, St. Louis, MO, USA). LS-180 and FaDu cells were cultured in Eagle’s Minimum Essential Medium. HT-29 cells were maintained in McCoy’s 5 A Medium (Sigma Aldrich, St. Louis, MO, USA) supplemented with 10%FBS, penicillin (100 U/mL), and streptomycin (100 μg/mL). All the cells were maintained at 37 °C in a humidified atmosphere of 5% CO2.
(§3) The synthesised compounds were dissolved in DMSO in order to obtain stock solutions. At the day of the experiment, the suspension of cells (1 × 10^5 cells/mL) in the respective medium was applied to a 96-well plate at 100 μL per well. […] The control cells were cultured only with a medium containing 2% FBS. Cytotoxicity of DMSO was also checked at concentrations present in respective dilutions of stock solution. After 24 h (or 48 h) of incubation, 15 μL of MTT working solution (5 mg/mL in PBS) was added to each well. The plate was incubated for 3 h. Subsequently, 100 μL of 10% SDS solution was added to each well. Cells were incubated overnight at 37 °C to dissolve the precipitated formazan crystals. The concentration of the dissolved formazan was evaluated by measuring the absorbance at λ = 570 nm, using a microplate reader (Epoch, BioTek Instruments, Inc., Winooski, VT, USA). At least two independent experiments were performed in triplicates. The results of the MTT assay were expressed as mean ± SD. […] IC50 values of the investigated derivatives and standards were calculated using the IC50 calculator.[23]

[2] = system: HT-29 (colon cancer cell line); test: MTT assay; format: cell-based; settings: Homo sapiens, HT-29, MTT, read-out: IC50, cytotoxicity
Protocol: as §1, §2, §3

[3] = system: MCF-7 (estrogen-dependent human breast cancer cells); test: MTT assay; format: cell-based; settings: MCF7, MCF-7, MTT, read-out: IC50, cytotoxicity
Protocol: as §1, §2, §3

[4] = system: A375 (melanoma cells); test: MTT assay; format: cell-based; settings: Homo sapiens, read-out: IC50, cytotoxicity
Protocol: as §1, §2, §3

[5] = MTT assay; format: cell-based; settings: human, HEK-293 cells (normal reference cell line), HEK-293 (normal cells), read-out: IC50, cytotoxicity
Protocol: as §1, §2, §3

[6] = system: MDA-MB-231 (estrogen-independent human breast cancer cells); test: MTT assay; format: cell-based; settings: MDA-MB-231, MTT, read-out: IC50, cytotoxicity
Protocol: as §1, §2, §3

[7] = system: LS180 (colon cancer cell line); test: MTT assay; format: cell-based; settings: Homo sapiens, read-out: IC50, cytotoxicity
Protocol: as §1, §2, §3

[8] = system: A549 (human lung carcinoma); test: MTT assay; format: cell-based; settings: read-out: IC50, cytotoxicity
Protocol: as §1, §2, §3

[9] = system: T98G (glioblastoma cells); test: MTT assay; format: cell-based; settings: Homo sapiens, read-out: IC50, cytotoxicity
Protocol: as §1, §2, §3

[10] = system: FaDu (squamous cell carcinoma of the pharynx); test: MTT assay; format: cell-based; settings: Homo sapiens, read-out: IC50, cytotoxicity
Protocol: as §1, §2, §3

[11] = system: AGS (human gastric adenocarcinoma); test: MTT assay; format: cell-based; settings: read-out: IC50, cytotoxicity
Protocol: as §1, §2, §3

[12] = Solubility in culture media and buffers; format: physicochemical

SMILES	IC50 ([1]; 24h) [µg/mL]	IC50 ([1]; 48 h) [µg/mL]	IC50 ([2]; 24h) [µg/mL]	IC50 ([2]; 48 h) [µg/mL]	IC50 ([3]; 24h) [µg/mL]	IC50 ([3]; 48h) [µg/mL]	IC50 ([4]; A-375, 24h) [µg/mL]	IC50 ([4]; A-375, 48 h) [µg/mL]	IC50 at 24 h [5] [µg/mL]	IC50 at 48 h [5] [µg/mL]	IC50 ([6]; 24h) [µg/mL]	IC50 ([6]; 48h) [µg/mL]	IC50 ([7]; 24h) [µg/mL]	IC50 ([7]; 48 h) [µg/mL]	IC50 ([8]; 24h) [µg/mL]	IC50 ([8]; 48h) [µg/mL]	IC50 ([9]; 24h) [µg/mL]	IC50 ([9]; 48h) [µg/mL]	IC50 ([10]; 24h) [µg/mL]	IC50 ([10]; 48 h) [µg/mL]	other results
O=C(Cc1cccc2ccccc12)NNC(=S)Nc1c(F)cccc1F [Compound 10, 4-(2,6-Difluorophenyl)-1-[(naphth-1-yl)acetyl]thiosemicarbazide]	52.4 (≈ 141 µM)	23.9 (≈ 64.2 µM)	32.9 (≈ 88.7 µM)	32.2 (≈ 86.6 µM)	64.1 (≈ 173 µM)	20.6 (≈ 55.6 µM)	47.9 (≈ 129 µM)	30.1 (≈ 81.2 µM)	63.7 (≈ 172 µM)	19.5 (≈ 52.5 µM)	83.4 (≈ 225 µM)	68.1 (≈ 183 µM)	72.4 (≈ 195 µM)	12.6 (≈ 33.8 µM)	92.6 (≈ 249 µM)	32.8 (≈ 88.4 µM)	47.2 (≈ 127 µM)	30.6 (≈ 82.5 µM)	20.1 (≈ 54.2 µM)	29.7 (≈ 80.1 µM)	IC50 ([11]; 24h): 29.5 µg/mL (≈ 79.3 µM); IC50 ([11]; 48 h): 21.1 µg/mL (≈ 56.7 µM); melting point: 186 to 188 °C
Cc1cccc(C(=O)NC(=S)NNC(=O)c2ccccc2[N+](=O)[O-])c1 [Compound 5, 4-(3-Methylobenzoyl)-1-(2-nitrobenzoyl)thiosemicarbazide]	> 100	17.3 (≈ 48.3 µM)	45.2 (≈ 126 µM)	12.3 (≈ 34.3 µM)	> 100	28.1 (≈ 78.5 µM)	89.3 (≈ 249 µM)	38.5 (≈ 107 µM)	78.1 (≈ 218 µM)	24.6 (≈ 68.6 µM)	> 100	56.3 (≈ 157 µM)	> 100	19.8 (≈ 55.4 µM)	> 100	> 100	> 100	30.1 (≈ 83.9 µM)	> 100	31.7 (≈ 88.4 µM)	IC50 ([11]; 24h): > 100 µg/mL; IC50 ([11]; 48 h): 63.9 µg/mL (≈ 178 µM); melting point: 194 to 195 °C
O=C(NC(=S)NNC(=O)c1ccccc1[N+](=O)[O-])c1ccc([N+](=O)[O-])cc1 [Compound 6, 1-(2-Nitrobenzoyl)-4-(4-nitrobenzoyl)thiosemicarbazide]	26 (≈ 66.7 µM)	9.78 (≈ 25.1 µM)	22.8 (≈ 58.5 µM)	6.78 (≈ 17.4 µM)	> 100	15.9 (≈ 40.9 µM)	> 100	7.98 (≈ 20.5 µM)	> 100	60.1 (≈ 154 µM)	> 100	16.8 (≈ 43.3 µM)	> 100	10.4 (≈ 26.7 µM)	20.8 (≈ 53.3 µM)	23.4 (≈ 60.2 µM)	8.41 (≈ 21.6 µM)	9.78 (≈ 25.1 µM)	12.9 (≈ 33.1 µM)	14.8 (≈ 37.9 µM)	IC50 ([11]; 24h): 23.5 µg/mL (≈ 60.3 µM); IC50 ([11]; 48 h): 29.8 µg/mL (≈ 76.5 µM)
O=C(NNC(=S)Nc1ccc(F)cc1F)c1ccccc1[N+](=O)[O-] [Compound 11, 4-(2,4-Difluorophenyl)-1-(2-nitrobenzoyl)thiosemicarbazide]																					solubility in culture media and buffers [12]: low solubility; melting point: 182 to 184 °C
O=C(NNC(=S)Nc1c(F)cccc1F)c1ccccc1[N+](=O)[O-] [Compound 4, 4-(2,6-Difluorophenyl)-1-(2-nitrobenzoyl)thiosemicarbazide]	> 100	40.9 (≈ 116 µM)	25 (≈ 71 µM)	> 100	> 100	19.4 (≈ 55.1 µM)	> 100	14.8 (≈ 42 µM)	> 100	> 100	> 100	32.5 (≈ 92.2 µM)	> 100	55.6 (≈ 158 µM)	> 100	> 100	55.5 (≈ 157 µM)	7.26 (≈ 20.6 µM)	> 100	39.2 (≈ 111 µM)	IC50 ([11]; 24h): > 100 µg/mL; IC50 ([11]; 48 h): 63.9 µg/mL (≈ 181 µM); melting point: 278 to 280 °C
